pIC50: −log10 of the molar value.
Tests used:
Assay type in all cases: cell-based
human TLR8 = biological target: T1, human TLR8 (Homo sapiens, UniProt Q9NR97); assay: TLR8 inhibition reporter assay (HEK-Blue cells, SEAP reporter); details: HEK-Blue cells overexpressing human TLR8; stimulated with R848 15.9 μM; 22 hour incubation; SEAP readout
T1 sequence (Q9NR97 27-1041): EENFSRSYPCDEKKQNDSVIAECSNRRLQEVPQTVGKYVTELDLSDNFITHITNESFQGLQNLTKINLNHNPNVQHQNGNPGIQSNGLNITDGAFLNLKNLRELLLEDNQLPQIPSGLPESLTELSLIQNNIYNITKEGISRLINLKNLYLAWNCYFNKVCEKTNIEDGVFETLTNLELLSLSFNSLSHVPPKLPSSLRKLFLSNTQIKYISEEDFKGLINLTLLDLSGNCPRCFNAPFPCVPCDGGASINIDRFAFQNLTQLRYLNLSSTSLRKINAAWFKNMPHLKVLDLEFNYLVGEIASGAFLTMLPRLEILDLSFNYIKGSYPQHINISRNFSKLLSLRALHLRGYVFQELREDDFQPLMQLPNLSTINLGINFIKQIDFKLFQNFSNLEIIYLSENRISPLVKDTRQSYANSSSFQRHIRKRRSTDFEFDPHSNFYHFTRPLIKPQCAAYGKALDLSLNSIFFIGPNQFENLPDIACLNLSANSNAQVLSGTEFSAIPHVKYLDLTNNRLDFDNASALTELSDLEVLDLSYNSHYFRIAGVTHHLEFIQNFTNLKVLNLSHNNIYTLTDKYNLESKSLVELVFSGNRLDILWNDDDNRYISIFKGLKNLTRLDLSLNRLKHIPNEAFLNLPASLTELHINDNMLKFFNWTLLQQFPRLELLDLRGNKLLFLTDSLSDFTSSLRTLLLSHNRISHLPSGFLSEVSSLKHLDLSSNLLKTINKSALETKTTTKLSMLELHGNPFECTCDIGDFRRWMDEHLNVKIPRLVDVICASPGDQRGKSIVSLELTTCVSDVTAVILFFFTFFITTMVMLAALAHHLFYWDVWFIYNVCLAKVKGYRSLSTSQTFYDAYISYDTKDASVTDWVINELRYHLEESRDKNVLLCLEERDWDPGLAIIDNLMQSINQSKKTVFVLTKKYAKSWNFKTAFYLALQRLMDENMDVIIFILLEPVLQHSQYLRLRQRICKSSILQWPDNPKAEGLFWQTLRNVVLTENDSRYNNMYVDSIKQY
In short: (§1)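 HEK-Blue cells with an NF-κB/AP-1-driven SEAP reporter were pre-treated 30 min at room temperature with compound (0.05 nM–50 μM), then stimulated with gardiquimod 7.5 μM (TLR7), R848 15.9 μM (TLR8) or ODN2006 5 nM (TLR9). After 22 h at 37 °C, SEAP was read; % inhibition was referenced to agonist+DMSO and known-inhibitor wells.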

human TLR9 = biological target: T2, human TLR9 (Homo sapiens, UniProt Q9NR96); assay: TLR9 inhibition reporter assay (HEK-Blue cells, SEAP reporter); details: HEK-Blue cells overexpressing human TLR9; stimulated with ODN2006 5 nM; 22 hour incubation; SEAP readout
T2 sequence (Q9NR96 26-1032): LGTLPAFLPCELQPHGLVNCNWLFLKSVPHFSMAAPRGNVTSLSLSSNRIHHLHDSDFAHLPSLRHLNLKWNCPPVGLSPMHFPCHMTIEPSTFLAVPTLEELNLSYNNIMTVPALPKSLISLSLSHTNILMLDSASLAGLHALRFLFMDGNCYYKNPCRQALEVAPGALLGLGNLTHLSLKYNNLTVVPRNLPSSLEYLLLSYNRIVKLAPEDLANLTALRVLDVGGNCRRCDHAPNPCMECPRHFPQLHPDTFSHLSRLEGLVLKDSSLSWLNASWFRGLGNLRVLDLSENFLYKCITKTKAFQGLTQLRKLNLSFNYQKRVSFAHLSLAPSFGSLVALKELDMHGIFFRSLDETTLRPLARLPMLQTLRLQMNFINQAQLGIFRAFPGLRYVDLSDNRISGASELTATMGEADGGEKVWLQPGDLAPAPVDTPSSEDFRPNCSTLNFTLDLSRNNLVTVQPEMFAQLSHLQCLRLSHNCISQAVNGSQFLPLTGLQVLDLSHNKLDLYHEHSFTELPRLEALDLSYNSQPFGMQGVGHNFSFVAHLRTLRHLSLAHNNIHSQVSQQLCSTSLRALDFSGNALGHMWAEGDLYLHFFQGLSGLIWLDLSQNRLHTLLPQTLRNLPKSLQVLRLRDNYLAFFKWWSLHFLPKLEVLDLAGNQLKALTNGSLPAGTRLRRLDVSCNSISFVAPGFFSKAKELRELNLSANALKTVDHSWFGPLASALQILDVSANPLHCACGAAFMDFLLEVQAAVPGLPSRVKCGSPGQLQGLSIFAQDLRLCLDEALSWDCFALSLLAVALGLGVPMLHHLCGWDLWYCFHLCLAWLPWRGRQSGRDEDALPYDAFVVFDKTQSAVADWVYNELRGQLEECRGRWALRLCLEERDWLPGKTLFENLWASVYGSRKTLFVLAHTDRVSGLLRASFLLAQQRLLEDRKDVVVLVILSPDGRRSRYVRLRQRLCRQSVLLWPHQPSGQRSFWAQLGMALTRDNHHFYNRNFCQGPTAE
In short: as §1

human TLR7 = biological target: T3, human TLR7 (Homo sapiens, UniProt Q9NYK1); assay: TLR7 inhibition reporter assay (HEK-Blue cells, SEAP reporter); details: HEK-Blue cells overexpressing human TLR7; stimulated with gardiquimod 7.5 μM; 22 hour incubation; SEAP readout
T3 sequence (Q9NYK1 27-1049): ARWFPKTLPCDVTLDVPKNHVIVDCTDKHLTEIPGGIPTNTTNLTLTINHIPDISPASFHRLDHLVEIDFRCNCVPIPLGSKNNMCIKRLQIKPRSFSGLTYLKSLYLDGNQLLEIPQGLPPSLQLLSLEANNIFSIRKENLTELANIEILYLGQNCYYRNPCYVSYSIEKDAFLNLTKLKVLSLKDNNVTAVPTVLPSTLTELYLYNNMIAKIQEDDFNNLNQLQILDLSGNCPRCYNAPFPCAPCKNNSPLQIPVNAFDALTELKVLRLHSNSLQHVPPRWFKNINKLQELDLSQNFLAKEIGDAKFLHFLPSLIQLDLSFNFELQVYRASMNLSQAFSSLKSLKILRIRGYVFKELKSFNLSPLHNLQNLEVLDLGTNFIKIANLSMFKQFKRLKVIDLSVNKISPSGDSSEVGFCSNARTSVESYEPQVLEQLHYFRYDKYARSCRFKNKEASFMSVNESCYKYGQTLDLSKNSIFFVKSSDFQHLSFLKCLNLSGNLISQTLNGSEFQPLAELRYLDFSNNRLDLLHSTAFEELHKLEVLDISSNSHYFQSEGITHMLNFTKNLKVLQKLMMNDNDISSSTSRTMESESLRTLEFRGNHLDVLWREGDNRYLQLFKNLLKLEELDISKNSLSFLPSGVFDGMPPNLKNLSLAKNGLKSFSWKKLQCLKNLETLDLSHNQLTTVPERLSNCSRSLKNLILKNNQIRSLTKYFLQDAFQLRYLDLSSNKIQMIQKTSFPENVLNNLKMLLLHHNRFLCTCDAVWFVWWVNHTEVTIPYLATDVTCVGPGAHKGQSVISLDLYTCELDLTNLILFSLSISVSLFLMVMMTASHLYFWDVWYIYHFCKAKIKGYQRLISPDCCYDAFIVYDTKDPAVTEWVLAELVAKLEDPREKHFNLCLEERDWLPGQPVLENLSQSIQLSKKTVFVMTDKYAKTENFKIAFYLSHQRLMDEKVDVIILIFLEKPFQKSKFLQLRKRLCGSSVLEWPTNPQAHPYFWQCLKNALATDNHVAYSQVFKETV
In short: as §1

| pIC50 (human TLR8) | pIC50 (human TLR9) | pIC50 (human TLR7) | Compound |
| --- | --- | --- | --- |
| < 4.60 | 5.62 | < 4.60 | COc1ccc(-c2cn3cc(-c4ccc(N5CCN(C6COC6)CC5)cc4)cc(C)c3n2)cc1OC [Example 64, 2-(3,4-dimethoxyphenyl)-8-methyl-6-(4-(4-(oxetan-3-yl)piperazin-1-yl)phenyl) imidazo[1,2-a]pyridine] |
| < 4.30 | 6.17 | 5.32 | Cc1cc(-c2ccc(N3CCN(C(C)C)CC3)cc2)cn2cc(-c3ccc(S(C)(=O)=O)cc3)nc12 [Example 65, 6-(4-(4-isopropylpiperazin-1-yl)phenyl)-8-methyl-2-(4-(methylsulfonyl)phenyl) imidazo[1,2-a]pyridine] |
| < 4.30 | 7.21 | 4.84 | Cc1cc(C2CCN(C3CCN(C(C)C)CC3)CC2)cc2nc(-c3ccc(S(C)(=O)=O)cc3)cn12 [Example 66, 7-(1′-isopropyl-[1,4′-bipiperidin]-4-yl)-5-methyl-2-(4-(methylsulfonyl)phenyl) imidazo[1,2-a]pyridine] |
| < 4.30 | 7.37 | 4.72 | CC(C)N1CCC(N2CCC(c3cc(F)c4nc(-c5ccc(S(C)(=O)=O)cc5)cn4c3)CC2)CC1 [Example 67, 8-fluoro-6-(1′-isopropyl-[1,4′-bipiperidin]-4-yl)-2-(4-(methylsulfonyl)phenyl) imidazo[1,2-a]pyridine] |
| < 4.30 | 6.52 | 4.64 | CC(C)N1CCC(N2CCC(c3cn4cc(-c5ccc(S(C)(=O)=O)cc5)nc4cc3F)CC2)CC1 [Example 70, 7-fluoro-6-(1′-isopropyl-[1,4′-bipiperidin]-4-yl)-2-(4-(methylsulfonyl)phenyl) imidazo[1,2-a]pyridine] |
| 4.64 | 6.97 | < 4.30 | CC(C)N1CCC(N2CCC(c3ccc4nc(-c5ccc(S(C)(=O)=O)cc5)cn4c3F)CC2)CC1 [Example 73, 5-fluoro-6-(1′-isopropyl-[1,4′-bipiperidin]-4-yl)-2-(4-(methylsulfonyl)phenyl) imidazo[1,2-a]pyridine] |
| < 4.60 | 7.30 | 5.46 | Cc1cc(C2CCN(C3CCN(CC4CC4)CC3)CC2)cn2cc(-c3ccc(S(C)(=O)=O)cc3)nc12 [Example 92, 6-(1′-(cyclopropylmethyl)-[1,4′-bipiperidin]-4-yl)-8-methyl-2-(4-(methylsulfonyl)phenyl)imidazo[1,2-a]pyridine] |
| < 4.30 | 6.66 | < 4.30 | COc1ccc(-c2cn3cc(-c4ccc(N5CCN(CC(C)C)CC5)cc4)cc(C)c3n2)cc1OC [Example 94, 2-(3,4-dimethoxyphenyl)-6-(4-(4-isobutylpiperazin-1-yl)phenyl)-8-methylimidazo[1,2-a]pyridine] |
| < 4.30 | 6.27 | 6.00 | COc1ccc(-c2cn3cc(-c4ccc(N5CCN(CC6CC6)CC5)cc4)cc(C)c3n2)cc1OC [Example 95, 6-(4-(4-(cyclopropylmethyl)piperazin-1-yl)phenyl)-2-(3,4-dimethoxyphenyl)-8-methylimidazo[1,2-a]pyridine] |
| 4.82 | 6.63 | 5.68 | COc1ccc(-c2cn3cc(-c4ccc(N5CCN(C(C)C)CC5)cc4)cc(C)c3n2)cc1OC [Example 96, 2-(3,4-dimethoxyphenyl)-6-(4-(4-isopropylpiperazin-1-yl)phenyl)-8-methylimidazo[1,2-a]pyridine] |
| < 4.60 | 5.68 | < 4.30 | COc1ccc(-c2cn3cc(-c4ccc(N5CCN(C6CCOCC6)CC5)cc4)cc(C)c3n2)cc1OC [Example 97, 2-(3,4-dimethoxyphenyl)-8-methyl-6-(4-(4-(tetrahydro-2H-pyran-4-yl)piperazin-1-yl)phenyl) imidazo[1,2-a]pyridine] |
| < 4.30 | 6.20 | < 4.30 | Cc1cc(-c2ccc(N3CCN(CC(C)C)CC3)cc2)cn2cc(-c3ccc(S(C)(=O)=O)cc3)nc12 [Example 99, 6-(4-(4-isobutylpiperazin-1-yl)phenyl)-8-methyl-2-(4-(methylsulfonyl)phenyl) imidazo[1,2-a]pyridine] |
| 4.83 | 6.48 | 4.87 | Cc1cc(-c2ccc(N3CCN(CC4CC4)CC3)cc2)cn2cc(-c3ccc(S(C)(=O)=O)cc3)nc12 [Example 100, 6-(4-(4-(cyclopropylmethyl)piperazin-1-yl)phenyl)-8-methyl-2-(4-(methylsulfonyl)phenyl) imidazo[1,2-a]pyridine] |
| 4.85 | 6.10 | 4.74 | Cc1cc(-c2ccc(N3CCN(CC4CCC4)CC3)cc2)cn2cc(-c3ccc(S(C)(=O)=O)cc3)nc12 [Example 101, 6-(4-(4-(cyclobutylmethyl)piperazin-1-yl)phenyl)-8-methyl-2-(4-(methylsulfonyl)phenyl)imidazo[1,2-a]pyridine] |

Reference: patent publication US12486267B2, “Imidazo[1,2-A]pyridine and [1,2,4]triazolo[1,5-A]pyridine derivatives as TLR9 inhibitors for the treatment of fibrosis” (BRISTOL-MYERS SQUIBB COMPANY, priority 2020, dated 2025)
